Results: ChEMBL document CHEMBL3885881, “DrugMatrix”

Species: Rattus norvegicus
Assay type: toxicity, organism-based, Sprague-Dawley
Conditions: in vivo, po, route oral GAVAGE, […]; for ABSOLUTE EOSINOPHIL / ABSOLUTE LYMPHOCYTE / ABSOLUTE MONOCYTE / ABSOLUTE SEGMENTED NEUTROPHIL / BASOPHIL / EOSINOPHIL / ERYTHROCYTE COUNT / HEMATOCRIT / HEMOGLOBIN / LEUKOCYTE COUNT / LYMPHOCYTE / MEAN CORPUSCULAR HEMOGLOBIN / MEAN CORPUSCULAR HEMOGLOBIN CONCENTRATION / MEAN CORPUSCULAR VOLUME / MONOCYTE / NEUTROPHIL / NUCLEATED RED BLOOD CELLS / PLATELET COUNT: tissue Blood; for ALANINE AMINOTRANSFERASE / ALKALINE PHOSPHATASE / ASPARTATE AMINOTRANSFERASE / BLOOD UREA NITROGEN / CARBON DIOXIDE / CHLORIDE / CHOLESTEROL / CREATINE PHOSPHOKINASE / CREATININE / GLUCOSE / LACTATE DEHYDROGENASE / LIPASE / PHOSPHORUS / POTASSIUM / SODIUM / TOTAL BILIRUBIN / TOTAL PROTEIN / URIC ACID: tissue Plasma
[1] = 100 mg/kg, 24 h, dose level Low, time 1 day
[2] = 700 mg/kg, 6 h, dose level High, time 0.25 day
[3] = 700 mg/kg, 24 h, dose level High, time 1 day

Description: DrugMatrix - Regimen: Single

What does the source list for `Cc1ccc(C)c(OCCCC(C)(C)C(=O)O)c1` [GEMFIBROZIL]?
ABSOLUTE EOSINOPHIL [1]: 126.33 CELLS/uL; ABSOLUTE LYMPHOCYTE [1]: 13618.33 CELLS/uL; ABSOLUTE MONOCYTE [1]: 235.33 CELLS/uL; ABSOLUTE SEGMENTED NEUTROPHIL [1]: 1320 CELLS/uL; BASOPHIL [1]: 0%; EOSINOPHIL [1]: 0.83%; ERYTHROCYTE COUNT [1]: 5.54 x10E6/uL; HEMATOCRIT [1]: 35.43%; HEMOGLOBIN [1]: 13.82 G/DL; LEUKOCYTE COUNT [1]: 15.3 x10E3/uL; LYMPHOCYTE [1]: 89.17%; MEAN CORPUSCULAR HEMOGLOBIN [1]: 25.02 pg; MEAN CORPUSCULAR HEMOGLOBIN CONCENTRATION [1]: 39 G/DL; MEAN CORPUSCULAR VOLUME [1]: 64.12 fL; MONOCYTE [1]: 1.5%; NEUTROPHIL [1]: 8.5%; NUCLEATED RED BLOOD CELLS [1]: 0 /100WBC; PLATELET COUNT [1]: 879.83 x10E3/uL; ALANINE AMINOTRANSFERASE [1]: 82.17 u/L; ALKALINE PHOSPHATASE [1]: 348.5 u/L; ASPARTATE AMINOTRANSFERASE [1]: 88.67 u/L; BLOOD UREA NITROGEN [1]: 11.17 mg/dL; CARBON DIOXIDE [1]: 30.17 mmol/L; CHLORIDE [1]: 101.33 MEQ/L; CHOLESTEROL [1]: 57.17 mg/dL; CREATINE PHOSPHOKINASE [1]: 237 u/L; CREATININE [1]: 0.18 mg/dL; GLUCOSE [1]: 138.33 mg/dL; LACTATE DEHYDROGENASE [1]: 130.5 u/L; LIPASE [1]: 8.67 u/L; PHOSPHORUS [1]: 9.87 mg/dL; POTASSIUM [1]: 6.21 MEQ/L; SODIUM [1]: 146.35 MEQ/L; TOTAL BILIRUBIN [1]: 0.15 mg/dL; TOTAL PROTEIN [1]: 5.83 G/DL; URIC ACID [1]: 1.02 mg/dL; ABSOLUTE EOSINOPHIL [2]: 0 CELLS/uL; ABSOLUTE LYMPHOCYTE [2]: 11512.83 CELLS/uL; ABSOLUTE MONOCYTE [2]: 281.33 CELLS/uL; ABSOLUTE SEGMENTED NEUTROPHIL [2]: 1289.17 CELLS/uL; BASOPHIL [2]: 0%; EOSINOPHIL [2]: 0%; ERYTHROCYTE COUNT [2]: 5.72 x10E6/uL; HEMATOCRIT [2]: 36.68%; HEMOGLOBIN [2]: 14.32 G/DL; LEUKOCYTE COUNT [2]: 13.08 x10E3/uL; LYMPHOCYTE [2]: 87.5%; MEAN CORPUSCULAR HEMOGLOBIN [2]: 25.02 pg; MEAN CORPUSCULAR HEMOGLOBIN CONCENTRATION [2]: 39.02 G/DL; MEAN CORPUSCULAR VOLUME [2]: 64.17 fL; MONOCYTE [2]: 2.33%; NEUTROPHIL [2]: 10.17%; NUCLEATED RED BLOOD CELLS [2]: 0 /100WBC; PLATELET COUNT [2]: 1058.5 x10E3/uL; ALANINE AMINOTRANSFERASE [2]: 68.17 u/L; ALKALINE PHOSPHATASE [2]: 373.33 u/L; ASPARTATE AMINOTRANSFERASE [2]: 85.5 u/L; BLOOD UREA NITROGEN [2]: 9.83 mg/dL; CARBON DIOXIDE [2]: 30.5 mmol/L; CHLORIDE [2]: 95.17 MEQ/L; CHOLESTEROL [2]: 81.83 mg/dL; CREATINE PHOSPHOKINASE [2]: 224.83 u/L; CREATININE [2]: 0.16 mg/dL; GLUCOSE [2]: 138.17 mg/dL; LACTATE DEHYDROGENASE [2]: 127.17 u/L; LIPASE [2]: 12.33 u/L; PHOSPHORUS [2]: 11.42 mg/dL; POTASSIUM [2]: 6.25 MEQ/L; SODIUM [2]: 143.7 MEQ/L; TOTAL BILIRUBIN [2]: 0.68 mg/dL; TOTAL PROTEIN [2]: 6.2 G/DL; URIC ACID [2]: 1.3 mg/dL; ABSOLUTE EOSINOPHIL [3]: 30.33 CELLS/uL; ABSOLUTE LYMPHOCYTE [3]: 15144 CELLS/uL; ABSOLUTE MONOCYTE [3]: 266 CELLS/uL; ABSOLUTE SEGMENTED NEUTROPHIL [3]: 893 CELLS/uL; BASOPHIL [3]: 0%; EOSINOPHIL [3]: 0.17%; ERYTHROCYTE COUNT [3]: 5.34 x10E6/uL; HEMATOCRIT [3]: 34.55%; HEMOGLOBIN [3]: 13.67 G/DL; LEUKOCYTE COUNT [3]: 16.33 x10E3/uL; LYMPHOCYTE [3]: 92.33%; MEAN CORPUSCULAR HEMOGLOBIN [3]: 25.58 pg; MEAN CORPUSCULAR HEMOGLOBIN CONCENTRATION [3]: 39.58 G/DL; MEAN CORPUSCULAR VOLUME [3]: 64.72 fL; MONOCYTE [3]: 1.67%; NEUTROPHIL [3]: 5.83%; NUCLEATED RED BLOOD CELLS [3]: 0.33 /100WBC; PLATELET COUNT [3]: 1050.67 x10E3/uL; ALANINE AMINOTRANSFERASE [3]: 55.83 u/L; ALKALINE PHOSPHATASE [3]: 484.5 u/L; ASPARTATE AMINOTRANSFERASE [3]: 65.17 u/L; BLOOD UREA NITROGEN [3]: 10.67 mg/dL; CARBON DIOXIDE [3]: 28 mmol/L; CHLORIDE [3]: 100 MEQ/L; CHOLESTEROL [3]: 71 mg/dL; CREATINE PHOSPHOKINASE [3]: 320.67 u/L; CREATININE [3]: 0.21 mg/dL; GLUCOSE [3]: 140.83 mg/dL; LACTATE DEHYDROGENASE [3]: 120.67 u/L; LIPASE [3]: 9.67 u/L; PHOSPHORUS [3]: 10.38 mg/dL; POTASSIUM [3]: 5.59 MEQ/L; SODIUM [3]: 146.73 MEQ/L; TOTAL BILIRUBIN [3]: 0.25 mg/dL; TOTAL PROTEIN [3]: 5.97 G/DL; URIC ACID [3]: 1.07 mg/dL
